According to patent US20250114313A1, “OLIGO-BENZAMIDE ANALOGS AND THEIR USE IN CANCER TREATMENT” (BOARD OF REGENTS, THE UNIVERSITY OF TEXAS SYSTEM, priority 2022, published 2025):

How the values were obtained:
[1] = test system: 21 human preclinical TNBC cell line models; experiment: WST-1 assay, TNBC cell lines; type: cell-based; settings: 21 TNBC cell lines, all six molecular subtypes, read-out: anti-proliferative IC50, WST-1
Procedure: Cell viability assays: Cells were seeded in 96-well plates (2×10^3 cells/well) one day before the treatment. Cells were treated with varying concentrations of ERX-41 or ERX-11 analogs for 3-6 days. Then effects of ERX-41 or ERX-11 analogs on cell viability were measured in triplicate or sextuplicate with multiple biological replicates using the WST-1 (Promega), MTT as previously described^33 or CellTiter-Glo 2.0 (Promega) assays.

[2] = Pharmacokinetics in MDA-MB-231 xenograft tumor-bearing mice (LC-MS/MS); type: in vivo
Description: Analytical LC-MS/MS conditions: Compound levels in plasma and tissues for in vivo pharmacokinetic (PK) studies were monitored by LC-MS/MS using an AB Sciex (Framingham, MA) 6500^+ QTRAP® mass spectrometer coupled to a Shimadzu (Columbia, MD) Prominence LC. Analytes were detected with the mass spectrometer in positive MRM (multiple reaction monitoring) mode by following the precursor to fragment ion transition 705.3→592.3. An Agilent C18 XDB column (5 micron, 50×4.6 mm) was used for chromatography for PK studies with the following conditions: Buffer A: dH2O+0.1% formic acid, Buffer B: methanol+0.1% formic acid, 0-1.0 min 5% B, 1.0-2 min gradient to 98% B, 2-3.0 min 98% B, 3.0-3.2 min gradient to 5% B, 3.2-4.5 min 5% B. Tolbutamide (transition 271.2 to 91.2) from Sigma (St. Louis, MO) was used as an internal standard (IS). Pharmacokinetic studies were performed in MDA-MB-231 xenograft tumor-bearing female NOD-SCID mice. ERX-41 was given either orally or intraperitoneally (10 mg/kg single dose). Animals were sacrificed in groups of three, blood was obtained by cardiac puncture at each time point (0, 0.5, 1.5, 3, 6 and 24 hours post dose) using the anticoagulant EDTA and plasma isolated by centrifugation. Tumor and liver were also collected and snap frozen in liquid nitrogen after rinsing with PBS to remove surface adhering blood. Tissues were homogenized in a 3-fold volume (weight by volume) of PBS to generate a homogenate. 100 μl of plasma or tissue homogenate was mixed with 200 μl of methanol containing 0.15% formic acid and 15 ng/mL tolbutamide IS. The samples were vortexed 15 sec, incubated at room temp for 10 min and spun twice at 16,100×g 4° C. in a refrigerated microcentrifuge. The amount of compound present in plasma, tumor and liver was quantified by LC-MS/MS to determine the amount of compound in each matrix. Standard curves were generated using blank plasma (Bioreclamation, Westbury, NY, RRID:SCR_004728) or blank tissue homogenate spiked with known concentrations of test compound and processed as described above. The concentrations of drug in each time-point sample were quantified using Analyst 1.7.1 software (Sciex). A value of 3-fold above the signal obtained from blank plasma or tissue homogenate was designated the limit of detection (LOD). The lower limit of quantitation (LLOQ) was defined as the lowest concentration at which back calculation yielded a concentration within 20% of theoretical and which was above the LOD. The LLOQ for plasma and tumor was 0.1 ng/mL and 1 ng/mL in liver. PK parameters, Cmax, Tmax, Terminal T½ (calculated as Ln(2)/λz), AUClast (area under the concentration time curve to the last measured value determined by linear trapezoidal rule), Cl (clearance measured as Dose/AUCinf), and Vz (volume of distribution based on the terminal phase=Dose/AUCinf*λz) were calculated using the noncompartmental analysis tool of Phoenix WinNonLin version 8.01 (Certara/Pharsight, Sunnyvale, CA, RRID:SCR_003163).

CC(C)COc1cc(C(=O)Nc2ccc(C(=O)N[C@H]3CC[C@H](C)CC3)cc2OCC(C)C)ccc1NC(=O)c1ccc([N+](=O)[O-])c(OCCO)c1 [ERX-41]
IC50 [1]: < 500 nM | drug level in treated tumor tissues at 24 h ([2]; 10 mg/kg single dose): detectable levels of ERX-41 at 24 h | oral bioavailability ([2]; mouse, in vivo, po): orally bioavailable | time to detection in liver and kidneys ([2]; oral administration): ≤ 4 h | time to detection in subcutaneous MDA-MB-231 xenograft tumors ([2]; oral or intraperitoneal administration): ≤ 1.5 h | time of peak detectable levels in plasma ([2]; oral, 10 mg/kg single dose): 4 h
